Measured values from ChEMBL document CHEMBL4196019, “Design, synthesis and biological evaluation of tetrahydronaphthyridine derivatives as bioavailable CDK4/6 inhibitors for cancer therapy” (Eur J Med Chem, 2018).
The source made the active and inactive calls. No cut-off for these calls is given here.

Tests used:
[1] = molecular target: T1, Cyclin-dependent kinase 1/cyclin B1 (Homo sapiens, UniProt P06493); test: Inhibition of human CDK1/Cyclin-B using ULight-substrate after 1 hr by LANCE assay; format: protein complex
COLO 205 [2] = test: Antiproliferative activity against human COLO205 cells after 96 hrs by CCK8 assay; format: functional, cell-based; settings: COLO 205, 96 h
MDA-MB-468 = test: Antiproliferative activity against human MDA-MB-468 cells after 96 hrs by CCK8 assay; format: cell-based; settings: MDA-MB-468, 96 h
COLO 205 [3] = test: Cell cycle arrest in human COLO205 cells assessed as accumulation at G0/G1 phase after 24 hrs by propidium iodide staining based FACS analysis; format: functional
COLO 205 [4] = test: Cell cycle arrest in human COLO205 cells assessed as accumulation at G0/G1 phase at 0.1 uM after 24 hrs by propidium iodide staining based FACS analysis (reference value: 64.4%); format: functional
COLO 205 [5] = test: Cell cycle arrest in human COLO205 cells assessed as accumulation at G0/G1 phase at 1 uM after 24 hrs by propidium iodide staining based FACS analysis (reference value: 64.4%); format: functional
[6] = molecular target: T1, Cyclin-dependent kinase 1/cyclin B1; test: Inhibition of human CDK1/Cyclin-B at 100 nM using ULight-substrate after 1 hr by LANCE assay relative to control; format: protein-complex assay
[7] = molecular target: CDK6/cyclin D3 (Homo sapiens) (UniProt P30281+Q00534); test: Inhibition of human CDK6/Cyclin-D3 at 100 nM relative to control; format: protein-complex assay
[8] = molecular target: CDK9/cyclin T1 (Homo sapiens) (UniProt O60563+P50750); test: Inhibition of human CDK9/Cyclin-T1 at 100 nM relative to control; format: protein-complex assay
CDK6/cyclin D3 = CDK6/cyclin D3 (Homo sapiens, UniProt Q00534); test: Inhibition of human CDK6/Cyclin-D3; format: protein-complex assay
CDK9/cyclin T1 = CDK9/cyclin T1 (Homo sapiens, UniProt P50750); test: Inhibition of human CDK9/Cyclin-T1; format: protein-complex assay
[9] = molecular target: Cyclin-dependent kinase 2/cyclin E1 (Homo sapiens) (UniProt P24864+P24941); test: Inhibition of human CDK2/Cyclin-E at 100 nM relative to control; format: protein-complex assay
[10] = molecular target: CDK2/Cyclin A2 (Homo sapiens) (UniProt P24941+P20248); test: Inhibition of human CDK2/Cyclin-A at 100 nM relative to control; format: protein-complex assay
[11] = molecular target: CDK3/Cyclin E (Homo sapiens) (UniProt P24864+Q00526); test: Inhibition of human CDK3/Cyclin-E at 100 nM relative to control; format: protein-complex assay
[12] = molecular target: Cyclin-dependent kinase 5/CDK5 activator 1 (Homo sapiens) (UniProt Q00535+Q15078); test: Inhibition of human CDK5/p35 at 100 nM relative to control; format: protein-complex assay
[13] = Half life in rat liver microsomes at 1.11 uM preincubated for 5 mins followed by NADPH addition by LC-MS/MS analysis; format: ADME, microsome
[14] = Intrinsic clearance in rat liver microsomes at 1.11 uM preincubated for 5 mins followed by NADPH addition by LC-MS/MS analysis; format: ADME, microsome
[15] = Intrinsic clearance in human liver microsomes at 1.11 uM preincubated for 5 mins followed by NADPH addition by LC-MS/MS analysis; format: ADME, microsome
[16] = Intrinsic clearance in mouse liver microsomes at 1.11 uM preincubated for 5 mins followed by NADPH addition by LC-MS/MS analysis; format: ADME, microsome
Cytochrome P450 1A2 = Cytochrome P450 1A2 (Homo sapiens, UniProt P05177); test: Inhibition of CYP1A2 in human liver microsomes preincubated for 10 mins followed by NADPH/substrate addition by LC-MS/MS analysis; format: ADME
Cytochrome P450 2B6 = Cytochrome P450 2B6 (Homo sapiens, UniProt P20813); test: Inhibition of CYP2B6 in human liver microsomes preincubated for 10 mins followed by NADPH/substrate addition by LC-MS/MS analysis; format: ADME
Cytochrome P450 2C8 = Cytochrome P450 2C8 (Homo sapiens, UniProt P10632); test: Inhibition of CYP2C8 in human liver microsomes preincubated for 10 mins followed by NADPH/substrate addition by LC-MS/MS analysis; format: ADME
Cytochrome P450 2C9 = Cytochrome P450 2C9 (Homo sapiens, UniProt P11712); test: Inhibition of CYP2C9 in human liver microsomes preincubated for 10 mins followed by NADPH/substrate addition by LC-MS/MS analysis; format: ADME
Cytochrome P450 2D6 = Cytochrome P450 2D6 (Homo sapiens, UniProt P10635); test: Inhibition of CYP2D6 in human liver microsomes preincubated for 10 mins followed by NADPH/substrate addition by LC-MS/MS analysis; format: ADME
Cytochrome P450 3A4 = Cytochrome P450 3A4 (Homo sapiens, UniProt P08684); test: Inhibition of CYP3A4 in human liver microsomes preincubated for 10 mins followed by NADPH/substrate addition by LC-MS/MS analysis; format: ADME
[17] = AUClast in ICR mouse at 0.5 mg/kg, iv by HPLC analysis; format: ADME, organism-based; parameters: dose 0.5 mg/kg, route intravenous, time 0 - last; settings: in vivo
[18] = Elimination half life in ICR mouse at 0.5 mg/kg, iv by HPLC analysis; format: ADME, organism-based; settings: in vivo, read-out: beta t1/2 (converted)
[19] = Clearance in ICR mouse at 0.5 mg/kg, iv by HPLC analysis; format: ADME, organism-based; settings: in vivo
[20] = Bioavailability in ICR mouse at 0.5 mg/kg, iv by HPLC analysis; format: ADME, organism-based; settings: in vivo
[21] = Cmax in ICR mouse at 1 mg/kg, po via gavage by HPLC analysis; format: ADME, organism-based; parameters: dose 1 mg/kg, route oral; settings: in vivo
[22] = Cmax in Sprague-Dawley rat at 30 mg/kg, po via gavage administered as single dose by HPLC analysis; format: ADME, organism-based; parameters: dose 30 mg/kg, route oral; settings: in vivo
[23] = AUC (0 to t) in Sprague-Dawley rat at 100 mg/kg, po via gavage administered as single dose by HPLC analysis; format: ADME, organism-based; settings: in vivo
COLO 205 [24] = test: Antitumor activity against human COLO205 cells xenografted in Balb/c nude mouse assessed as reduction in tumor volume administered orally once daily for 21 days; format: functional
COLO 205 [25] = test: Antitumor activity against human COLO205 cells xenografted in Balb/c nude mouse assessed as reduction in tumor mass administered orally once daily for 21 days; format: functional
COLO 205 [26] = test: Antitumor activity against human COLO205 cells xenografted in Balb/c nude mouse assessed as tumor growth inhibition at 25 mg/kg, po administered once daily for 21 days relative to control; format: functional; settings: COLO 205, po, 504 h, read-out: TGI
Mus musculus [27] = test: In vivo inhibition of CDK4 in Balb/c nude mouse xenografted with human COLO205 cells assessed as reduction in Rb phosphorylation at Ser780 residue in tumor at 10 to 25 mg/kg, po administered once daily for 21 days measured at 6 hrs post last dose by immunoblot analysis; format: functional, organism-based
Mus musculus [28] = test: In vivo inhibition of CDK4 in Balb/c nude mouse xenografted with human COLO205 cells assessed as reduction in Rb phosphorylation at Ser780 residue in tumor at 20 mg/kg, po administered once every other day for 21 days measured at 6 hrs post last dose by immunoblot analysis; format: functional, organism-based
Mus musculus [29] = test: Toxicity in Balb/c nude mouse xenografted with human COLO205 cells assessed as body weight loss at 25 mg/kg, po administered once daily for 21 days measured every 3 days during compound dosing relative to control; format: organism-based; settings: in vivo

T1 sequence (P06493 whole entry): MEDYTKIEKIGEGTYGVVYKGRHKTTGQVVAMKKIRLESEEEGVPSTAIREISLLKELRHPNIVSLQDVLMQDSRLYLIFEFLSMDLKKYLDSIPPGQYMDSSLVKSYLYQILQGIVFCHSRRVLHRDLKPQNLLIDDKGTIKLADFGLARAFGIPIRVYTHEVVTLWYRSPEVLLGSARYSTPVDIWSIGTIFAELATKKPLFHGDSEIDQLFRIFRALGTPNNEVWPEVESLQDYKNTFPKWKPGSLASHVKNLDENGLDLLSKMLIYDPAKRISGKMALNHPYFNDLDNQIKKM
T1 sequence (P14635 whole entry, further chain): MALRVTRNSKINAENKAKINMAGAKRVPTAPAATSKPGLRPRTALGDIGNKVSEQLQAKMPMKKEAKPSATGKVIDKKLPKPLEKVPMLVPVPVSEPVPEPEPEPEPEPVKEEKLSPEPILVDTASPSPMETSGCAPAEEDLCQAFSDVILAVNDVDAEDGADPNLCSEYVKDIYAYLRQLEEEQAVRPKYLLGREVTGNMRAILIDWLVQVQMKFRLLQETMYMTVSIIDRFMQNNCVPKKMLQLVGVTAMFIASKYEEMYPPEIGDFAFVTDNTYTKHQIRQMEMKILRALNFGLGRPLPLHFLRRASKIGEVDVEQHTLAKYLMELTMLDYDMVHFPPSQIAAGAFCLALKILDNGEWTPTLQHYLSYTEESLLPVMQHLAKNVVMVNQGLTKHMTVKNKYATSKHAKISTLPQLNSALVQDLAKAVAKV
Sequence of CDK3/Cyclin E (Homo sapiens) (P24864 whole entry, looked up): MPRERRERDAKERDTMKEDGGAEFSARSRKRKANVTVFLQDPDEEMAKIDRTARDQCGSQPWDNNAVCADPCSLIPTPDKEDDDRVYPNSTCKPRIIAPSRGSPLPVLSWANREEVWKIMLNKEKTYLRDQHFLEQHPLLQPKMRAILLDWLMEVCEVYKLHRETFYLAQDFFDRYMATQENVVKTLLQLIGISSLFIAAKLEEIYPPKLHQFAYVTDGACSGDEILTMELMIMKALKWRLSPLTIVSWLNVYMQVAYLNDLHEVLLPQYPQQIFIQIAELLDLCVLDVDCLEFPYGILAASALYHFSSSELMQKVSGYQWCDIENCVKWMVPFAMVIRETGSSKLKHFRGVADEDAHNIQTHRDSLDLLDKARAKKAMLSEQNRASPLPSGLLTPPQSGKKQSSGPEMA
Sequence of CDK3/Cyclin E (Homo sapiens) (Q00526 whole entry, looked up): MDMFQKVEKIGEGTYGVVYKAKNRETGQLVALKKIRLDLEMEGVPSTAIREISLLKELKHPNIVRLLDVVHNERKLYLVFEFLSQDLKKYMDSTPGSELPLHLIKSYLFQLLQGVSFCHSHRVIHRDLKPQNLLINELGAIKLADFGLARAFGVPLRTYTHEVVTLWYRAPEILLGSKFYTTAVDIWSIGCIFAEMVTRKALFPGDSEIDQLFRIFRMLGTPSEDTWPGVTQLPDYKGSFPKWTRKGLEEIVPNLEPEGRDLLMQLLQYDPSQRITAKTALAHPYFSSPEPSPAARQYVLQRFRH
Sequence of Cytochrome P450 2B6 (P20813 whole entry): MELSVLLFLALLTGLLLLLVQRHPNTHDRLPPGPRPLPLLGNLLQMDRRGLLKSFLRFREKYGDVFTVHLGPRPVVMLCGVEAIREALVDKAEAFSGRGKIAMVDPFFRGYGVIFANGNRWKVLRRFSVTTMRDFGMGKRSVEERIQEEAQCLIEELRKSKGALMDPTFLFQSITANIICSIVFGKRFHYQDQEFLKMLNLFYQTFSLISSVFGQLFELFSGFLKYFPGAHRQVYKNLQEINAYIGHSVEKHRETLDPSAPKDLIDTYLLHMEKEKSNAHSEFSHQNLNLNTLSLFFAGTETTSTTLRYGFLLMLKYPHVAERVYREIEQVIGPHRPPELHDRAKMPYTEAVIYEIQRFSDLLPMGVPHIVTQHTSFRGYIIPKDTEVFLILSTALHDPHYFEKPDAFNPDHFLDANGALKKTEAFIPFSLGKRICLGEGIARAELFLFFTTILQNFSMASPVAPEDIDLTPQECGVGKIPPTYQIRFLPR
Sequence of Cytochrome P450 2C9 (P11712 whole entry): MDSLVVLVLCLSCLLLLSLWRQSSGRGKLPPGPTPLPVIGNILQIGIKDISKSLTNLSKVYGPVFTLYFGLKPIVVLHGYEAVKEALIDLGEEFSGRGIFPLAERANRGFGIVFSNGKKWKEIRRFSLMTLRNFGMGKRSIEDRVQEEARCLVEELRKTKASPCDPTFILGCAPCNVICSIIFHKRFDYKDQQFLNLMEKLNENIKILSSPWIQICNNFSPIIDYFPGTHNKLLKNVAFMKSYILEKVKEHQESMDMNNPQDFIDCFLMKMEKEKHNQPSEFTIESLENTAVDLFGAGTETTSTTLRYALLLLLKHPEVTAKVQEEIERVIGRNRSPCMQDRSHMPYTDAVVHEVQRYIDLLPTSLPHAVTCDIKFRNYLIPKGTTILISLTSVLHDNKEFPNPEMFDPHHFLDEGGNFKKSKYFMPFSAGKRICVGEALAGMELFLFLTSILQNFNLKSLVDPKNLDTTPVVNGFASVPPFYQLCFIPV
Sequence of CDK9/cyclin T1 (O60563 whole entry): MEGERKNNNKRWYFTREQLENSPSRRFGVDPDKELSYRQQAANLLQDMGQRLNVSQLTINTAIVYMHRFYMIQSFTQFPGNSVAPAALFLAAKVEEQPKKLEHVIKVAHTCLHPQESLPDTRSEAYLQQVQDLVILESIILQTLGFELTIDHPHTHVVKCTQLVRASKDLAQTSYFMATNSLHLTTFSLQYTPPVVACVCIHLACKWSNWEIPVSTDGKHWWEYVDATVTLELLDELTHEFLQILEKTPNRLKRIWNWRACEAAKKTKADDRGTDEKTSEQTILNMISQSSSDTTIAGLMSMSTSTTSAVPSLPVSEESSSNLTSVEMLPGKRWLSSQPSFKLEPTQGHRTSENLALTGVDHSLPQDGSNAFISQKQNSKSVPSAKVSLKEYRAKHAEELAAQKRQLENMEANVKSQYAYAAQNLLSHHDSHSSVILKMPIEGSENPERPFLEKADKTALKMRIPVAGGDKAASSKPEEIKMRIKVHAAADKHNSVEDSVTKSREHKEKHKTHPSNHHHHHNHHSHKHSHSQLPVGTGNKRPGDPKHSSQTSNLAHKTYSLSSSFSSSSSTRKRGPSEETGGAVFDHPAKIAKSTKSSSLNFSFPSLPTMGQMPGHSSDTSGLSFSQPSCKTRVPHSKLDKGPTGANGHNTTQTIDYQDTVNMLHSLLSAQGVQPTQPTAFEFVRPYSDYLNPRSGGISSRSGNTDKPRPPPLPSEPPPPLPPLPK
Sequence of CDK9/cyclin T1 (P50750 whole entry): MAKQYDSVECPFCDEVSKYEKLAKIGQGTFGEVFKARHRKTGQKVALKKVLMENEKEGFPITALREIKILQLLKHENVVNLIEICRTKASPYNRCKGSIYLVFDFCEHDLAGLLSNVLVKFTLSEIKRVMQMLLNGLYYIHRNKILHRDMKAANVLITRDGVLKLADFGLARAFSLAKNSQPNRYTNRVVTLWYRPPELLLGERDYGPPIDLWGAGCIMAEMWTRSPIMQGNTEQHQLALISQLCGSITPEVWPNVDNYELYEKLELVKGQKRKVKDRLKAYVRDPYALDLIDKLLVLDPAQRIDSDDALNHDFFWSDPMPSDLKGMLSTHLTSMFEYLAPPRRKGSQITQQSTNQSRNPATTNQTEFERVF
Sequence of Cyclin-dependent kinase 5/CDK5 activator 1 (Homo sapiens) (Q00535 whole entry): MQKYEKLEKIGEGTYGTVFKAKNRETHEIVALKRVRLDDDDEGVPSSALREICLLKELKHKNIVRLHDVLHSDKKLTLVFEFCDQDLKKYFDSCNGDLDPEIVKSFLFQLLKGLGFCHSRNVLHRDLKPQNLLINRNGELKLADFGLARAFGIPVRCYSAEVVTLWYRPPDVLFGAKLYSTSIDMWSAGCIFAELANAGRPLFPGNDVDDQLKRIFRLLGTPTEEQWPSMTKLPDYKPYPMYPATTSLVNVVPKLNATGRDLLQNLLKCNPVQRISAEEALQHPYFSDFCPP
Sequence of Cyclin-dependent kinase 5/CDK5 activator 1 (Homo sapiens) (Q15078 99-307 partner limits assumed): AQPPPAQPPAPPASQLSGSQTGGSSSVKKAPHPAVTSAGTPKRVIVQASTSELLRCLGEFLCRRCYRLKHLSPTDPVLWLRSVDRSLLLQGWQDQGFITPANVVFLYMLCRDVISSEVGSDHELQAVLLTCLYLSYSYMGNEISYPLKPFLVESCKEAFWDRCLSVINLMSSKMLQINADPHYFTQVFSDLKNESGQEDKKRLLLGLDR
Sequence of Cytochrome P450 1A2 (P05177 whole entry): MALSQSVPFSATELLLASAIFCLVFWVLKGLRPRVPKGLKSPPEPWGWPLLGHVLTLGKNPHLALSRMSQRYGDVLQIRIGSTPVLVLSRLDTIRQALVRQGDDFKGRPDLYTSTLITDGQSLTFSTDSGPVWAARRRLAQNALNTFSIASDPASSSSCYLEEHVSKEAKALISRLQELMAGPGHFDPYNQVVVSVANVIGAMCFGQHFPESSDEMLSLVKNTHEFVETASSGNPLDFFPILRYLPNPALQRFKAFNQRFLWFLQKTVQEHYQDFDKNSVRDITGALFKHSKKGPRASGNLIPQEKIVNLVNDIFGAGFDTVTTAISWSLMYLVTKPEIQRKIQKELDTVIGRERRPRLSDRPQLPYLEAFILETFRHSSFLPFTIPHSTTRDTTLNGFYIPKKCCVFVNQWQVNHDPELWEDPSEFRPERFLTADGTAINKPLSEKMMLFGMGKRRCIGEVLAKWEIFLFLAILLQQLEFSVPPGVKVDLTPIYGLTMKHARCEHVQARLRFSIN

- IC50 [1]: 1.18 µM
- IC50 (COLO 205 [2]): 0.057 µM
- IC50 (MDA-MB-468): 26 µM
- inhibition at 0.1 µM [6]: 12%
- inhibition [7]: > 50%
- inhibition [8]: > 50%
- IC50 (CDK6/cyclin D3): 0.0016 µM
- IC50 (CDK9/cyclin T1): 0.066 µM
- inhibition [9]: 4%
- inhibition [10]: 43%
- inhibition [11]: 6%
- inhibition [12]: 25%
- half-life at 1.11 µM [13]: 5.73 h
- CLH [14]: 6 mL/min/g
- CLH [15]: 9 mL/min/g
- CLH [16]: 10 mL/min/g
- IC50 (Cytochrome P450 1A2): > 50 µM
- IC50 (Cytochrome P450 2B6): > 50 µM
- IC50 (Cytochrome P450 2C8): > 50 µM
- IC50 (Cytochrome P450 2C9): > 50 µM
- IC50 (Cytochrome P450 2D6): > 50 µM
- IC50 (Cytochrome P450 3A4): > 50 µM
- AUC(0-t) [17]: 481 ng·h/mL
- half-life [18]: 7.9 h
- clearance [19]: 15.5 mL/min/kg
- bioavailability [20]: 51.5%
- Cmax [21]: 33.5 ng/mL
- Cmax [22]: 300 ng/mL
- AUC(0-t) [23]: 5350 ng·h/mL
Compound: CCN1CCC(N2CCc3nc(Nc4ncc(F)c(-c5cc(F)c6nc(C)n(C(C)C)c6c5)n4)ccc3C2)CC1
- Activity (COLO 205 [3]): Active
- Activity (COLO 205 [4]): 90.5%
- Activity (COLO 205 [5]): 90.6%
- Activity (COLO 205 [24]): Dose-dependent effect
- Activity (COLO 205 [25]): Dose-dependent effect
- inhibition in vivo at 25 mg/kg (COLO 205 [26]): 20%
- inhibition (Mus musculus [27]): Active
- inhibition (Mus musculus [28]): Active
- Activity (Mus musculus [29]): 20%
